Results published in ChEMBL document CHEMBL1146954, “Design and synthesis of 7H-pyrrolo[2,3-d]pyrimidines as focal adhesion kinase inhibitors. Part 1” (Bioorg Med Chem Lett, 2006).

Target: Focal adhesion kinase 1 (Homo sapiens, UniProt Q05397)
Test: Inhibitory activity against FAK

Focal adhesion kinase 1, sequence (Q05397 whole entry): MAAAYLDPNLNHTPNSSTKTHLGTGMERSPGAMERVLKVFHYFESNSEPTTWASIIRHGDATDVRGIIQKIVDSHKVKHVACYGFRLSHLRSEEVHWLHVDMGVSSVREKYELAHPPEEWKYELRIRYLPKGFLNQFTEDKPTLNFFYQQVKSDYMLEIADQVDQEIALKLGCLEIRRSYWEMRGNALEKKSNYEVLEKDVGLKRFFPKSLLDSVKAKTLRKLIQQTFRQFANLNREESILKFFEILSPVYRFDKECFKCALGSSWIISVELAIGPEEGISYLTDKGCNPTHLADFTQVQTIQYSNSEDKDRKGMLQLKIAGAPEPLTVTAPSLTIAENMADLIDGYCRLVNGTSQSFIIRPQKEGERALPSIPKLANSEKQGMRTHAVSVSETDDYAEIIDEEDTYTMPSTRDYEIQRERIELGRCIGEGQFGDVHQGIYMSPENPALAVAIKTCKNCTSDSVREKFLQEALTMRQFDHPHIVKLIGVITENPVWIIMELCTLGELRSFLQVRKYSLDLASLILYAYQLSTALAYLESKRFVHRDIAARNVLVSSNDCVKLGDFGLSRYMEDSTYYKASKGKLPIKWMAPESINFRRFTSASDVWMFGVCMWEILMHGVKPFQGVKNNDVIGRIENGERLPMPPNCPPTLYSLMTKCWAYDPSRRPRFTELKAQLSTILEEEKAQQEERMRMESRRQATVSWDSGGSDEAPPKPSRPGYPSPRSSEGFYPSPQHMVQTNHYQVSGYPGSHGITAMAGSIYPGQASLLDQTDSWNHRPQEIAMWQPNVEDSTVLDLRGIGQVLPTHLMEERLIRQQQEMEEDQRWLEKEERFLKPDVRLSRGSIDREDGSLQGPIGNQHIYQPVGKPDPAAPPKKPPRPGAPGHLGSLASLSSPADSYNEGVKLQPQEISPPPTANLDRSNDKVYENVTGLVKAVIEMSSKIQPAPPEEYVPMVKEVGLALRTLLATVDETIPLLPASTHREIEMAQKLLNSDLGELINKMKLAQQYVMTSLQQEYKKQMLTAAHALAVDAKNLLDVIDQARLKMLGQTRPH

`COc1cc(Nc2ncc(Br)c(Nc3ccccn3)n2)cc(OC)c1OC` was tested. Which IC50 did it give?
Its IC50 is 100 nM.

`COc1cc(Nc2ncc3ccn(-c4ccccn4)c3n2)cc(OC)c1OC` was tested. Which IC50 did it give?
Its IC50 is 200 nM.
